Earlier results on one molecule are cited in paper PMC10485003, “Antibiotic hyper-resistance in a class I aminoacyl-tRNA synthetase with altered active site signature motif” (Nature Communications, 2023).

The data set deals with wt-HVGH PmIleRS2. The conditions noted are these: cited from earlier work.

Values joined by “and” are separate entries in the source; they are usually repeats but may differ in a detail not shown here. Equal entries are not always repeated. Where two headings read alike, the source gives them in different places.

What is called Ki is the equilibrium dissociation constant of an inhibitor or competing ligand from its target. As to `C/C(=C\C(=O)OCCCCCCCCC(=O)O)C[C@@H]1OC[C@H](C[C@@H]2O[C@H]2[C@@H](C)[C@H](C)O)[C@@H](O)[C@H]1O` [mupirocin], the inhibition constant (Ki) reads like this: (amino acid activation step, ATP/PPi exchange assay, Ile varied, read-out: KI (MUP)Ile) 1080 ± 60 nM; (mupirocin inhibition towards Ile, GraphPad Prism output, Repl1-Repl3, Table 1 footnote b gives this enzyme's values as from ref 21, read-out: KI, single replicates) 1040 nM and 990 nM and 1180 nM.
